From US20040200144A1, “Plant growth regulator and a method of producing the regulator” (Dainichiseika Color & Chemicals Mfg. Co., Ltd., priority 2003, published 2004)

What was measured:
Type in all cases: in vivo
melon young plants = experiment: Dwarfing test of melon young plant; conditions: for Plant Height / Dwarfing Rate: 5 ml per cell on 7th day, measured 25th day; for Dwarfing Rate: vs comparative group
Procedure: (§1) After seeding, the pot was placed in the same greenhouse as described above to sprout. Subsequently, on the 5th day, the cinnamic aqueous acid solutions were added to the nursery soil in the joint pots. One of the joint pots (24 cells) was prepared as a 0.05% cinnamic acid aqueous solution addition group, and 5 ml of the 0.05% cinnamic acid aqueous solution was added to the nursery soil of each cell. Another one of the join pots was prepared as a 0.2% cinnamic acid aqueous solution addition group, and 5 ml of the 0.2% cinnamic acid aqueous solution was added to the nursery soil of each cell. […] Subsequently, the cultivation of carrot young plants in each group was continued under general conditions. On the 27th day, the heights of young plants in each group were measured, the dwarfing rate (%) was calculated, and the dwarfing effect of cinnamic acid aqueous solution on carrot young plants was examined. From the results in Table 5, it became evident that the 0.05% and 0.2% cinnamic acid aqueous solutions are effective in dwarfing carrot young plants. In the same way as in Example 5 except that seeds of cauliflower were sowed, the cinnamic acid solutions were added to the nursery soil in the joint pot on the 4th day, and that heights of young plants in each group were measured on the 20th day, the dwarfing effect of cinnamic acid aqueous solution on cauliflower young plants was examined. From the results in Table 12, it became evident that the cinnamic acid aqueous solutions are effective in dwarfing cauliflower young plants. In the same way as in Example 12 except that seeds of tomato were sowed, and that the cinnamic acid solutions were added to the nursery soil of the joint pot on the 7th day, the dwarfing effect of cinnamic acid aqueous solution on tomato young plants was examined. From the results in Table 17, it became evident that the cinnamic acid aqueous solutions are effective in dwarfing tomato young plants. In the same way as in Example 17 except that seeds of melon were sowed, and that plant heights were measured on the 25th day, the dwarfing effect of cinnamic acid aqueous solution on melon young plants was examined. From the results in Table 25, it became evident that the cinnamic acid aqueous solutions are effective in dwarfing melon young plants.

green onion young plants = experiment: Dwarfing test of green onion young plant; conditions: for Plant Height / Dwarfing Rate: 5 ml per cell on 5th day, measured 27th day; for Dwarfing Rate: vs comparative group
Procedure: 50 g of sodium tripolyphosphate was dissolved in 400 ml of distilled water at 80° C., 17.5 g of cinnamic acid was added to the sodium tripolyphosphate solution and dissolved by stirring, the resultant solution was diluted with distilled water until the total volume of solution was 500 ml, and thus 3.5% cinnamic acid aqueous solution (pH 6.5) was prepared. The aqueous solution was further diluted with distilled water 70 times or 17.5 times, and 0.05% cinnamic acid aqueous solution and 0.2% cinnamic acid aqueous solution were prepared, respectively.
Nursery soil for house use was filled into paper joint pots (each with 24 cells: 34×43×50 mm/cell), water was sufficiently given to the soil, and seeds of carrots were sowed. After seeding, the pot was placed in the same greenhouse as described above to sprout. Subsequently, on the 5th day, the cinnamic aqueous acid solutions were added to the nursery soil in the joint pots. One of the joint pots (24 cells) was prepared as a 0.05% cinnamic acid aqueous solution addition group, and 5 ml of the 0.05% cinnamic acid aqueous solution was added to the nursery soil of each cell. Another one of the join pots was prepared as a 0.2% cinnamic acid aqueous solution addition group, and 5 ml of the 0.2% cinnamic acid aqueous solution was added to the nursery soil of each cell. The other one of the joint pots was prepared as a comparative group in which 5 ml of water is added to each cell, instead of the cinnamic acid aqueous solution. Subsequently, the cultivation of carrot young plants in each group was continued under general conditions. On the 27th day, the heights of young plants in each group were measured, the dwarfing rate (%) was calculated, and the dwarfing effect of cinnamic acid aqueous solution on carrot young plants was examined. […].
In the same way as in Example 5 except that seeds of green onion were sowed, the dwarfing effect of cinnamic acid aqueous solution on green onion young plants was examined. […]

watermelon young plants = experiment: Dwarfing test of watermelon young plant; conditions: for Plant Height / Dwarfing Rate: 5 ml per cell on 7th day, measured 27th day; for Dwarfing Rate: vs comparative group
Procedure: as §1, with “watermelon” for “melon”, “27th” for “25th”, “21,” for “25,”

O=C(O)C=Cc1ccccc1 [cinnamic acid]
Plant Height (melon young plants; 0.05% aqueous solution): 6.3 cm
Dwarfing Rate (melon young plants; 0.05% aqueous solution): 4.5%
Plant Height (melon young plants; 0.2% aqueous solution): 4.1 cm
Dwarfing Rate (melon young plants; 0.2% aqueous solution): 37.9%
dwarfing effect (melon young plants; melon young plants, 0.05% and 0.2% aqueous solutions): effective
Plant Height (green onion young plants; 0.05% aqueous solution): 7.2 cm
Dwarfing Rate (green onion young plants; 0.05% aqueous solution): 25.8%
Plant Height (green onion young plants; 0.2% aqueous solution): 5.6 cm
Dwarfing Rate (green onion young plants; 0.2% aqueous solution): 42.3%
dwarfing effect (green onion young plants; green onion young plants, 0.05% and 0.2% aqueous solutions): effective
Plant Height (watermelon young plants; 0.05% aqueous solution): 9.3 cm
Dwarfing Rate (watermelon young plants; 0.05% aqueous solution): 15.5%
Plant Height (watermelon young plants; 0.2% aqueous solution): 7.9 cm
Dwarfing Rate (watermelon young plants; 0.2% aqueous solution): 28.2%
dwarfing effect (watermelon young plants; watermelon young plants, 0.05% and 0.2% aqueous solutions): effective
